Reference: article PMC7649747, “The startle disease mutation α1S270T predicts shortening of glycinergic synaptic currents” (The Journal of Physiology, 2020)
Substitutions are numbered along the chain they refer to.

Experiments:
homomeric α1 GlyR [1] = biological target: T1, homomeric α1 GlyR (Homo sapiens, UniProt P23415); assay: whole-cell patch clamp, U-tube application, Hill fit of peak currents; assay type: cell-based
T1 construct: gene GLRA1; full-length subunit, pcDNA3.1, transient expression in HEK293A; homopentamer; eGFP from separate plasmid
T1 sequence (P23415 29-457): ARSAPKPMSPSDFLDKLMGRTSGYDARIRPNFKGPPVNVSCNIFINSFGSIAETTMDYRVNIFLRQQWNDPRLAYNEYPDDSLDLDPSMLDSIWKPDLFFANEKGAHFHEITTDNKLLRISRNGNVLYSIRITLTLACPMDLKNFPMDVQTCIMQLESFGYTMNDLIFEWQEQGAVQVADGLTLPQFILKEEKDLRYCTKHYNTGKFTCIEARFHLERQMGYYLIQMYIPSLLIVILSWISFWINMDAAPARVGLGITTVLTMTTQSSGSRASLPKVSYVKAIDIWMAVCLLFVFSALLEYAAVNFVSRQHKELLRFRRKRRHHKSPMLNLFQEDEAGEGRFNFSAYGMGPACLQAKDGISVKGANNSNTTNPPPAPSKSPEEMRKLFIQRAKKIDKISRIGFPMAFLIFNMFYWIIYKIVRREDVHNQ
Text: (§1) whole-cell patch clamp, U-tube application, Hill fit of peak currents on homomeric α1 GlyR

homomeric α1 GlyR [2] = biological target: T2, homomeric α1 GlyR (Homo sapiens, UniProt P23415, S298T); assay: as above; assay type: cell-based
T2 construct: gene GLRA1; full-length subunit, pcDNA3.1, transient expression in HEK293A; homopentamer; eGFP from separate plasmid
T2 sequence (P23415 29-457 S298T): T1 sequence (P23415 29-457) with S270T
Text: as §1

For `CNCC(=O)O` [sarcosine], the EC50 (homomeric α1 GlyR [1]) was 14 ± 6 mM and the EC50 (homomeric α1 GlyR [2]) was 23 ± 3 mM.
